Data from patent publication US20250222009A1, “DINUCLEAR GOLD(I) COMPLEXES FOR TREATING CANCER” (KING FAHD UNIVERSITY OF PETROLEUM AND MINERALS, priority 2024, published 2025).

Assays:
MCF-7 (breast cancer) = experiment: MTT cytotoxicity assay, MCF-7; assay type: cell-based; conditions: 72 h, mean, SD in next cell
Description: The human epithelial ovarian cancer A2780 cell line and its cisplatin-resistant clone A2780cis were obtained from Sigma-Aldrich (Milano, Italy). A2780cis cells were continuously exposed to 1 μM cisplatin to maintain cisplatin resistance. A549 cells (Human non-small cell lung cancer), MCF7 (metastatic breast cancer), PC3 (highly aggressive metastatic prostate cancer), and MG63 (osteosarcoma) were obtained from the American Type Culture Collection (ATCC). Cells were authenticated in laboratory using the PowerPlex 16 HS System. A2780, A2780cis, and PC3 cells were cultured in RPMI-1640 medium; MG63 and MCF7 cells were cultured in DMEM, and A549 cells were cultured in F12 NUT-MIX. The culture medium contained about 10% fetal bovine serum (FBS) (Gibco, Thermo Fisher Scientific, Monza, Italy), about 1% (v/v) of penicillin (10,000 units/mL)-streptomycin (10 mg/mL), and about 1% (v/v) L-glutamine (200 mM) (all from Sigma-Aldrich). Cells were cultured at 37° C. in a 5% CO2, fully humidified atmosphere.
2.5×10^3 (PC3, MG63, MCF7) or 4.0×10^3 (A2780, A2780cis, A549) cells were seeded in 96-well microplates in 100 μL culture medium. Cells, allowed to adhere for 24 h, were then treated in triplicate with increasing concentrations of gold compounds. Cisplatin was included as a reference drug. Cell viability was evaluated using 3-(4,5-dimethylthiazol-2-yl)-2,5-diphenyltetrazolium bromide (MTT) assay (Sigma-Aldrich) after 72 h of treatment. Half maximal inhibitory concentrations (IC50), IC25, and IC75 were calculated using the CalcuSyn software version 2 (Biosoft, Ferguson, MO, USA) (See: Chou, T. C.; Talalay, P. Quantitative Analysis of Dose-Effect Relationships: The Combined Effects of Multiple Drugs or Enzyme Inhibitors. Adv. Enzyme Regul. 1984, 22, 27-55, which is incorporated herein by reference in its entirety). Fold resistance was calculated as the ratio of the IC50 of the A2780cis to that of the parental cell line A2780. Alternatively, cell viability was assayed by crystal violet staining (See: Feoktistova, M.; Geserick, P.; Leverkus, M. Crystal Violet Assay for Determining Viability of Cultured Cells. Cold Spring Harb Protoc 2016, 2016, pdb.prot087379, which is incorporated herein by reference in its entirety). Alternatively, after drug treatment, the culture Medium was removed, cells washed, fixed, and stained, and the Crystal Violet solution lasted 20 minutes (See: Sulaiman, A. A. A.; Casagrande, N.; Borghese, C.; Corona, G.; Isab, A. A.; Ahmad, S.; Aldinucci, D.; Altaf M. Design, Synthesis, and Preclinical Activity in Ovarian Cancer Models of New Phosphanegold(I)—N-Heterocyclic Carbene Complexes. J Med Chem 2022, 65, 14424-14440, which is incorporated herein by reference in its entirety).

A549-MCTSs = experiment: 3D-A549-MCTS viability (PrestoBlue); assay type: cell-based, human; conditions: 72 h, PrestoBlue, poly-HEMA coated wells
Description: To obtain multiple spheroids, 10.0×10^4 A549 cells were seeded in non-adherent conditions on poly-HEMA coated 96 wells (final volume, 200 μL) for four days. After drug treatment (72 h), the cell viability was determined using PrestoBlue Cell Viability Reagent (Thermo Fisher Scientific, Frederick, MD, USA) (See: Casagrande, N.; Celegato, M.; Borghese, C.; Mongiat, M.; Colombatti, A.; Aldinucci, D. Preclinical Activity of the Liposomal Cisplatin Lipoplatin in Ovarian Cancer. Clin Cancer Res 2014, 20, 5496-5506, which is incorporated herein by reference in its entirety).
3D-MCTSs are a model for in vitro drug testing (See: Zanoni, M.; Piccinini, F.; Arienti, C.; Zamagni, A.; Santi, S.; Polico, R.; Bevilacqua, A.; Tesei, A. 3D Tumor Spheroid Models for in Vitro Therapeutic Screening: A Systematic Approach to Enhance the Biological Relevance of Data Obtained. Sci Rep 2016, 6, 19103, which is incorporated herein by reference in its entirety) and to test drug tissue penetration. Thus, the effects of complex 3 in A549-MCTSs were determined by cultivating tumor cells in non-adherent conditions on poly-HEMA coated wells. […] Representative micro-photographs of A549-MCTSs treated with complex 3 (0.3-5 μM) and with cisplatin (15-250 μM) are shown in FIG. 9C.

For `CC(C)c1cccc(C(C)C)c1-n1ccn(-c2c(C(C)C)cccc2C(C)C)[c]1=[Au-][P+](CCNCC[P+]([Au-]=[c]1n(-c2c(C(C)C)cccc2C(C)C)ccn1-c1c(C(C)C)cccc1C(C)C)(C1CCCCC1)C1CCCCC1)(C1CCCCC1)C1CCCCC1` [Complex 3, [(Au(IPr))2(C28H24P2)](PF6)2], which IC50 (MCF-7 (breast cancer)) is on record?
Its IC50 is 430 nM.

What about the IC50 (A549-MCTSs) of the same molecule?
Its IC50 is 950 nM.
